# Assay results as given in ChEMBL document CHEMBL3137386, “DNDi T. cruzi fenarimol series dataset from which preclinical candidate EPL-BS1246 was identified (see also related datasets CHEMBL2448688 and CHEMBL3137440)”.
# “And” between values parts separate entries of the source, which are not always exact repeats. Identical values can stand only once.
# Experiments:
# [1] = DNDI: Metabolism; assay type: ADME, Microsome; conditions: human, microsomes; for hepatic extraction ratio: read-out: EH
# [2] = system: Trypanosoma cruzi; assay: (§1) DNDI: Chagas in vitro; assay type: functional, Tulahuen C4 (LacZ)
# [3] = target: T1, Cytochrome P450 3A4 (Homo sapiens, UniProt P08684); assay: (§2) DNDI: CYP Inhibition; assay type: ADME
# T1 sequence (P08684 whole entry): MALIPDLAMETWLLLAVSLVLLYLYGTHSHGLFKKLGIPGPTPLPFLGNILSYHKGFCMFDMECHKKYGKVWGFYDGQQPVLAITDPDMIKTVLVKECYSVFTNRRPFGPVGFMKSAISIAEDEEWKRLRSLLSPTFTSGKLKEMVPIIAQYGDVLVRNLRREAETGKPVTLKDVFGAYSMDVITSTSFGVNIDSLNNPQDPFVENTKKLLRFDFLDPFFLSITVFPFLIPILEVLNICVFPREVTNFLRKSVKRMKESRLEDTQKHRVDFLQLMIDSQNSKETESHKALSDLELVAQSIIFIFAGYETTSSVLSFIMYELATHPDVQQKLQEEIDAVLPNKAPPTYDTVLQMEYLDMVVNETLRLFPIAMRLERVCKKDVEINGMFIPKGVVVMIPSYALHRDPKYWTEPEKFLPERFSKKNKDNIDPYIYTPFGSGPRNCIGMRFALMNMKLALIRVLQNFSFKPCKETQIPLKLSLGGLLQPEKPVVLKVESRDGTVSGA
# [4] = (§3) DNDI: Cytotoxicity against L-6 rat myoblasts from skeletal muscle; assay type: toxicity, cell-based, Muscle tissue, L6; conditions: rat, L6 rat skeletal muscle myoblasts
# [5] = system: L6; assay: as §3; assay type: toxicity, cell-based, Muscle tissue; conditions: l6
# [6] = target: T1, Cytochrome P450 3A4; assay: as §2; assay type: ADME; remark: listed apart in the source
# [7] = DNDI: Solubility in 0.01M HCl at pH 2 determined by nephelometry; assay type: physicochemical; conditions: for solubility kinetic: 0.01 M HCl
# [8] = DNDI: Lipophilicity (gLogD) at pH 3; assay type: physicochemical; conditions: buffer
# [9] = system: Trypanosoma brucei rhodesiense; assay: DNDI: HAT in vitro; assay type: functional, organism-based; conditions: ATCC 30027
# [10] = system: Trypanosoma cruzi; assay: as §1; assay type: functional, organism-based, Tulahuen C4 (LacZ)
# [11] = DNDI: Lipophilicity (gLogD) at pH 7.4; assay type: physicochemical; conditions: buffer
# [12] = DNDI: Solubility in phosphate buffer at pH 6.5 determined by nephelometry; assay type: physicochemical
# [13] = Trypanosoma cruzi, Tulahuen C4 (LacZ)
EH [1],half-life [1] [min],microsomal CLint [1] [µL/min/mg],t (1 / 2) [1],hepatic extraction ratio [1],IC90 [2],IC50 [3] [µM],IC50 [6] [µM],solubility kinetic [7] [µg/mL],Kinetic ([7]; buffer) [µg/mL],chromatographic logD [8],IC50 [9] [µM],IC50 [10],chromatographic logD [11],"IC50 [10, 13] [µM]","IC90 [2, 13] [µM]",solubility kinetic [12] [µg/mL],SMILES,Clint [1],IC50 [4] [µM],IC50 [5] [µM]
0.61 and 0.63,41,42,63 min and 57 min,0.7,> 0.1 µM and 0.401 µM,6.6,> 20,> 100,25,3.8,> 10,,,,,,O=C(C(c1ccc(Cl)cc1)c1cccnc1)N1CCN(c2ccc(C(F)(F)F)cn2)CC1 (stereo not drawn),28 µL/min/mg and 30 µL/min/mg,57,59.3
0.56 and 0.54,60,29,83 min and 77 min,0.62,0.0565 µM and 0.0465 µM and > 0.1 µM,,> 20,> 100,,3.1,> 10,0.023 µM and 0.012 µM and > 0.1 µM,,,,,N#Cc1ccc(C(C(=O)N2CCN(c3ccc(C(F)(F)F)cn3)CC2)c2cccnc2)cc1 (stereo not drawn),21 µL/min/mg and 23 µL/min/mg,> 100,78.7
0.75 and 0.68,,,21 min and 33 min and 46 min,0.82,0.214 µM and > 0.1 µM,7.1,19,25,,2.3,> 10,,2.9,,,,CS(=O)(=O)c1ccc(N2CCN(C(=O)C(c3ccc(Cl)cc3)c3cccnc3)CC2)cc1 (stereo not drawn),84 µL/min/mg and 53 µL/min/mg and 38 µL/min/mg,> 100,61.5
,,,,,,,,,,,> 10,,,0.018,0.029,,O=S(=O)(Cc1ccccc1)Nc1cnccc1N1CCN(c2ccc(C(F)(F)F)cc2)CC1,,> 100,
,,,,,,,,,,,> 10,,,0.066,> 0.091,,CC(C)(C)OC(=O)N1CCN(C(=O)C(c2ccc(C#N)cc2)c2cccnc2)CC1 (stereo not drawn),,> 100,
0.69 and 0.66,50,,25 min and 43 min,0.79,,,> 20,25,,2.6,> 10,0.0635 µM and > 0.1 µM,2.6,0.0783,> 0.1,6.3,CS(=O)(=O)c1ccc(N2CCN(C(=O)C(c3ccc(Cl)cc3)c3cncnc3)CC2)cc1 (stereo not drawn),34 µL/min/mg and 69 µL/min/mg and 40 µL/min/mg,> 100,
,31,56,,0.76,,,> 20,12.5,,3.4,> 10,,3.3,0.253,> 0.1,12.5,O=C(C(c1ccc(Cl)cc1)c1cncnc1)N1CCN(c2ccc(C(F)(F)F)nc2)CC1 (stereo not drawn),,> 100,
,23,76,,0.81,,,18,50,,3.9,> 10,,3.9,0.161,> 0.1,6.3,O=C(C(c1ccc(Cl)cc1)c1cncnc1)N1CCN(c2ccc(C(F)(F)F)cn2)CC1 (stereo not drawn),,52.5,
,30,59,,0.77,,,20,3.1,,4.2,> 10,,4.2,0.118,> 0.1,3.1,O=C(C(c1ccc(Cl)cc1)c1cncnc1)N1CCN(c2ccc(C(F)(F)F)cc2)CC1 (stereo not drawn),,51.3,
,,,,,,,,,,,> 10,,,0.022,> 0.1,,O=C(c1ccc(Cl)cc1)N1CCN(C(=O)C(c2ccc(Cl)cc2)c2cccnc2)CC1 (stereo not drawn),,> 100,
,4,460,,0.96,,,15,,,,> 10,,,> 0.1,> 0.1,,O=C(C(c1ccc(Cl)cc1)c1cccnc1)N1CCN(Cc2ccccc2C(F)(F)F)CC1 (stereo not drawn),,54.2,
